# In ChEMBL document CHEMBL1255463, “Attenuation of colistin bactericidal activity by high inoculum of Pseudomonas aeruginosa characterized by a new mechanism-based population pharmacodynamic model” (Antimicrob Agents Chemother, 2010):
# Calls of active or inactive are those of the source. The rule behind the calls is not given here.
# Columns and labels:
# Type in all cases: functional, organism-based
# Pseudomonas aeruginosa [1] = test: Antimicrobial activity against 10^6 CFU/ml Pseudomonas aeruginosa PAO1 after 24 hrs by time-kill assay
# Pseudomonas aeruginosa [2] = test: Antimicrobial activity against 10^6 CFU/ml Pseudomonas aeruginosa URMC1 after 24 hrs by time-kill assay
# Pseudomonas aeruginosa [3] = test: Antimicrobial activity against 10^6 CFU/ml Pseudomonas aeruginosa URMC2 after 24 hrs by time-kill assay
# Pseudomonas aeruginosa [4] = test: Antimicrobial activity against 10^8 CFU/ml Pseudomonas aeruginosa PAO1 after 24 hrs by time-kill assay
# Pseudomonas aeruginosa [5] = test: Antimicrobial activity against 10^8 CFU/ml Pseudomonas aeruginosa URMC1 after 24 hrs by time-kill assay
# Pseudomonas aeruginosa [6] = test: Antimicrobial activity against 10^8 CFU/ml Pseudomonas aeruginosa URMC2 after 24 hrs by time-kill assay
# Pseudomonas aeruginosa [7] = test: Antimicrobial activity against 10^9 CFU/ml Pseudomonas aeruginosa PAO1 after 24 hrs by time-kill assay
# Pseudomonas aeruginosa [8] = test: Antimicrobial activity against 10^9 CFU/ml Pseudomonas aeruginosa URMC1 after 24 hrs by time-kill assay
# Pseudomonas aeruginosa [9] = test: Antimicrobial activity against 10^9 CFU/ml Pseudomonas aeruginosa URMC2 after 24 hrs by time-kill assay
# Pseudomonas aeruginosa [10] = test: Bactericidal activity against 10^6 CFU/ml Pseudomonas aeruginosa PAO1 at 1 to 4 times MIC up to 1 hr by time-kill assay
# Pseudomonas aeruginosa [11] = test: Bactericidal activity against 10^6 CFU/ml Pseudomonas aeruginosa URMC1 at 1 to 4 times MIC up to 1 hr by time-kill assay
# Pseudomonas aeruginosa [12] = test: Bactericidal activity against 10^6 CFU/ml Pseudomonas aeruginosa URMC2 at 1 to 4 times MIC up to 1 hr by time-kill assay
# Pseudomonas aeruginosa [13] = test: Bactericidal activity against 10^6 CFU/ml Pseudomonas aeruginosa PAO1 at >= 16 times MIC up to 30 mins by time-kill assay
# Pseudomonas aeruginosa [14] = test: Bactericidal activity against 10^6 CFU/ml Pseudomonas aeruginosa URMC1 at >= 16 times MIC up to 30 mins by time-kill assay
# Pseudomonas aeruginosa [15] = test: Bactericidal activity against 10^6 CFU/ml Pseudomonas aeruginosa URMC2 at >= 16 times MIC up to 30 mins by time-kill assay
# Pseudomonas aeruginosa [16] = test: Antimicrobial activity against 10^9 CFU/ml Pseudomonas aeruginosa PAO1 after 8 to 12 hrs by time-kill assay
# Pseudomonas aeruginosa [17] = test: Antimicrobial activity against 10^6 CFU/ml Pseudomonas aeruginosa PAO1 at 2 to 16 mg/L after 24 hrs by time-kill assay
# Pseudomonas aeruginosa [18] = test: Antimicrobial activity against 10^8 CFU/ml Pseudomonas aeruginosa PAO1 at 4 to 32 mg/L after 24 hrs by time-kill assay
# Pseudomonas aeruginosa [19] = test: Antimicrobial activity against 10^9 CFU/ml Pseudomonas aeruginosa PAO1 at 4 to 128 mg/L after 24 hrs by time-kill assay
# Pseudomonas aeruginosa [20] = test: Antimicrobial activity against 10^9.4 CFU/ml Pseudomonas aeruginosa PAO1 at 16 mg/L after 0.75 hrs by time-kill assay
# Pseudomonas aeruginosa [21] = test: Antimicrobial activity against 10^9.4 CFU/ml Pseudomonas aeruginosa PAO1 at 64 mg/L after 0.75 hrs by time-kill assay
# Pseudomonas aeruginosa [22] = test: Antimicrobial activity against 10^9.4 CFU/ml Pseudomonas aeruginosa PAO1 at 16 mg/L after 24 hrs by time-kill assay
# Pseudomonas aeruginosa [23] = test: Antimicrobial activity against 10^9.4 CFU/ml Pseudomonas aeruginosa PAO1 at 64 mg/L after 24 hrs by time-kill assay
# Pseudomonas aeruginosa [24] = test: Antimicrobial activity against Pseudomonas aeruginosa assessed as destabilization of bacterial outer membrane by receptor occupancy assay
sequence,measurement,setting,value
COLISTIN [listing 1 of 2 here],EC50,Pseudomonas aeruginosa [1],0.777 mg/L
same,EC50,Pseudomonas aeruginosa [2],0.736 mg/L
same,EC50,Pseudomonas aeruginosa [3],1.15 mg/L
same,EC50,Pseudomonas aeruginosa [4],1.49 mg/L
same,EC50,Pseudomonas aeruginosa [5],2.69 mg/L
same,EC50,Pseudomonas aeruginosa [6],2.56 mg/L
same,EC50,Pseudomonas aeruginosa [7],6.22 mg/L
same,EC50,Pseudomonas aeruginosa [8],4.62 mg/L
same,EC50,Pseudomonas aeruginosa [9],3.5 mg/L
COLISTIN [listing 2 of 2 here],Activity,Pseudomonas aeruginosa [1],Dose-dependent effect
same,Activity,Pseudomonas aeruginosa [2],Dose-dependent effect
same,Activity,Pseudomonas aeruginosa [3],Dose-dependent effect
same,Activity,Pseudomonas aeruginosa [10],Active
same,Activity,Pseudomonas aeruginosa [11],Active
same,Activity,Pseudomonas aeruginosa [12],Active
same,Activity,Pseudomonas aeruginosa [13],Active
same,Activity,Pseudomonas aeruginosa [14],Active
same,Activity,Pseudomonas aeruginosa [15],Active
same,Activity,Pseudomonas aeruginosa [16],inactive
same,Activity,Pseudomonas aeruginosa [17],inactive
same,Activity,Pseudomonas aeruginosa [18],inactive
same,Activity,Pseudomonas aeruginosa [19],inactive
same,log10CFU/ml,Pseudomonas aeruginosa [20],> 5
same,log10CFU/ml,Pseudomonas aeruginosa [21],> 5
same,log10CFU/ml,Pseudomonas aeruginosa [22],5
same,log10CFU/ml,Pseudomonas aeruginosa [23],> 5
same,Activity,Pseudomonas aeruginosa [24],53.7%
